Active and inactive are the calls of the source. The calls are words filed in the database; no cut-off is given here.
Assays:
Staphylococcus aureus [1] = assay: fCmin in heterogeneous vancomycin-intermediate Staphylococcus aureus 1629 infected in vivo pharmacodynamic model at 4000 mg treated every 12 hrs; assay type: ADME, organism-based
[2] = Ratio of fAUC in […] pharmacodynamic model to MIC for heterogeneous vancomycin-intermediate Staphylococcus aureus Mu3 at 2000 mg treated every 12 hrs; assay type: functional
[3] = Ratio of fAUC in […] pharmacodynamic model to MIC for heterogeneous vancomycin-intermediate Staphylococcus aureus 1629 at 750 mg treated every 12 hrs; assay type: functional
Staphylococcus aureus [4] = assay: Antibacterial activity against heterogeneous vancomycin-intermediate Staphylococcus aureus 1629 infected in […] pharmacodynamic model at 700 mg treated every 12 hrs measured after 72 hrs post dose; assay type: functional
[5] = Ratio of fAUC in […] pharmacodynamic model to MIC for multidrug-resistant Staphylococcus aureus 3286 at 1000 mg treated every 12 hrs; assay type: functional
[6] = Ratio of fAUC in […] pharmacodynamic model to MIC for multidrug-resistant Staphylococcus aureus 3286 at 1500 mg treated every 12 hrs; assay type: functional
[7] = Ratio of fAUC in […] pharmacodynamic model to MIC for multidrug-resistant Staphylococcus aureus; assay type: functional
[8] = Ratio of fAUC in […] pharmacodynamic model to MIC for multidrug-resistant Staphylococcus aureus 3286 at 2000 mg treated every 12 hrs; assay type: functional
Staphylococcus aureus [9] = assay: Antibacterial activity against heterogeneous vancomycin-intermediate Staphylococcus aureus Mu3 infected in […] pharmacodynamic model at 2500 mg treated every 12 hrs measured after 48 hrs post dose; assay type: functional
Staphylococcus aureus [10] = assay: fCmin in heterogeneous vancomycin-intermediate Staphylococcus aureus Mu3 infected in vivo pharmacodynamic model at 2500 mg treated every 12 hrs; assay type: ADME, organism-based
Staphylococcus aureus [11] = assay: fCmin in heterogeneous vancomycin-intermediate Staphylococcus aureus 1629 infected […] pharmacodynamic model at 1000 mg treated every 12 hrs; assay type: ADME, organism-based
[12] = Ratio of fAUC in […] pharmacodynamic model to MIC for heterogeneous vancomycin-intermediate Staphylococcus aureus 1629 at 4000 mg treated every 12 hrs; assay type: functional
Staphylococcus aureus [13] = assay: fCmin in heterogeneous vancomycin-intermediate Staphylococcus aureus 1629 infected in vivo pharmacodynamic model at 2000 mg treated every 12 hrs; assay type: ADME, organism-based
Staphylococcus aureus [14] = assay: Antibacterial activity against multidrug-resistant Staphylococcus aureus 3286 infected in in vitro pharmacodynamic model at 1000 to 2000 mg treated every 12 hrs using 10^6 CFU/ml inoculum by time-kill analysis; assay type: functional, organism-based
Staphylococcus aureus [15] = assay: Antibacterial activity against heterogeneous vancomycin-intermediate Staphylococcus aureus Mu3 infected in […] pharmacodynamic model at 1000 mg treated every 12 hrs measured after 48 hrs post dose; assay type: functional
[16] = Ratio of fAUC in […] pharmacodynamic model to MIC for heterogeneous vancomycin-intermediate Staphylococcus aureus 1629 at 1000 mg treated every 12 hrs; assay type: functional
Staphylococcus aureus [17] = assay: fCmin in heterogeneous vancomycin-intermediate Staphylococcus aureus Mu3 infected in vivo pharmacodynamic model at 700 mg treated every 12 hrs; assay type: ADME, organism-based
Staphylococcus aureus [18] = assay: Antibacterial activity against multidrug-resistant Staphylococcus aureus 3286 infected in […] pharmacodynamic model at 2000 mg treated every 12 hrs measured after 48 hrs post dose; assay type: functional
Staphylococcus aureus [19] = assay: fCmin in heterogeneous vancomycin-intermediate Staphylococcus aureus Mu3 infected […] pharmacodynamic model at 1000 mg treated every 12 hrs; assay type: ADME, organism-based
Staphylococcus aureus [20] = assay: fCmin in heterogeneous vancomycin-intermediate Staphylococcus aureus Mu3 infected […] pharmacodynamic model at 2000 mg treated every 12 hrs; assay type: ADME, organism-based
Staphylococcus aureus [21] = assay: fCmin in multidrug-resistant Staphylococcus aureus 3286 infected […] pharmacodynamic model at 4000 mg treated every 12 hrs; assay type: ADME, organism-based
[22] = Ratio of fAUC in […] pharmacodynamic model to MIC for heterogeneous vancomycin-intermediate Staphylococcus aureus 1629 at 2000 mg treated every 12 hrs; assay type: functional
Staphylococcus aureus [23] = assay: Antibacterial activity against heterogeneous vancomycin-intermediate Staphylococcus aureus Mu3 infected in […] pharmacodynamic model at 2500 mg treated every 12 hrs measured after 24 hrs post dose; assay type: functional
Staphylococcus aureus [24] = assay: fCmin in heterogeneous vancomycin-intermediate Staphylococcus aureus 1629 infected in vivo pharmacodynamic model at 1750 mg treated every 12 hrs; assay type: ADME, organism-based
Staphylococcus aureus [25] = assay: Antibacterial activity against heterogeneous vancomycin-intermediate Staphylococcus aureus Mu3 infected in […] pharmacodynamic model at 1500 mg treated every 12 hrs measured after 48 hrs post dose; assay type: functional
[26] = Ratio of fAUC in […] pharmacodynamic model to MIC for heterogeneous vancomycin-intermediate Staphylococcus aureus Mu3 at 2250 mg treated every 12 hrs; assay type: functional
Staphylococcus aureus [27] = assay: fCmin in multidrug-resistant Staphylococcus aureus 3286 infected in vivo pharmacodynamic model at 1500 mg treated every 12 hrs; assay type: ADME, organism-based
Staphylococcus aureus [28] = assay: fCmin in heterogeneous vancomycin-intermediate Staphylococcus aureus Mu3 infected in vivo pharmacodynamic model at 5000 mg treated every 12 hrs; assay type: ADME, organism-based
Staphylococcus aureus [29] = assay: Antibacterial activity against multidrug-resistant Staphylococcus aureus 3286 infected in […] pharmacodynamic model at 4000 mg treated every 12 hrs measured after 72 hrs post dose; assay type: functional
[30] = Ratio of fAUC in […] pharmacodynamic model to MIC for heterogeneous vancomycin-intermediate Staphylococcus aureus Mu3 at 1000 mg treated every 12 hrs; assay type: functional
[31] = Ratio of fAUC in […] pharmacodynamic model to MIC for heterogeneous vancomycin-intermediate Staphylococcus aureus Mu3 at 5000 mg treated every 12 hrs; assay type: functional
Staphylococcus aureus [32] = assay: fCmin in heterogeneous vancomycin-intermediate Staphylococcus aureus 1629 infected in vivo pharmacodynamic model at 750 mg treated every 12 hrs; assay type: ADME, organism-based
Staphylococcus aureus [33] = assay: Antibacterial activity against heterogeneous vancomycin-intermediate Staphylococcus aureus Mu3 infected in […] pharmacodynamic model at 1000 mg treated every 12 hrs measured after 24 hrs post dose; assay type: functional
[34] = Ratio of fAUC in […] pharmacodynamic model to MIC for multidrug-resistant Staphylococcus aureus 3286 at 4000 mg treated every 12 hrs; assay type: functional
Staphylococcus aureus [35] = assay: fCmin in multidrug-resistant Staphylococcus aureus 3286 infected in vivo pharmacodynamic model at 2000 mg treated every 12 hrs; assay type: ADME, organism-based
Staphylococcus aureus [36] = assay: fCmin in heterogeneous vancomycin-intermediate Staphylococcus aureus Mu3 infected in vivo pharmacodynamic model at 2250 mg treated every 12 hrs; assay type: ADME, organism-based
[37] = Ratio of fAUC in […] pharmacodynamic model to MIC for heterogeneous vancomycin-intermediate Staphylococcus aureus Mu3 at 750 mg treated every 12 hrs; assay type: functional
Staphylococcus aureus [38] = assay: fCmin in heterogeneous vancomycin-intermediate Staphylococcus aureus 1629 infected in vivo pharmacodynamic model at 1500 mg treated every 12 hrs; assay type: ADME, organism-based
Staphylococcus aureus [39] = assay: fCmin in multidrug-resistant Staphylococcus aureus 3286 infected […] pharmacodynamic model at 1000 mg treated every 12 hrs; assay type: ADME, organism-based
[40] = Ratio of fAUC in […] pharmacodynamic model to MIC for heterogeneous vancomycin-intermediate Staphylococcus aureus Mu3 at 2500 mg treated every 12 hrs; assay type: functional
Staphylococcus aureus [41] = assay: fCmin in heterogeneous vancomycin-intermediate Staphylococcus aureus Mu3 infected in vivo pharmacodynamic model at 1500 mg treated every 12 hrs; assay type: ADME, organism-based

SMILES: CN[C@H](CC(C)C)C(=O)N[C@H]1C(=O)N[C@@H](CC(N)=O)C(=O)N[C@H]2C(=O)N[C@H]3C(=O)N[C@H](C(=O)N[C@H](C(=O)O)c4cc(O)cc(O)c4-c4cc3ccc4O)[C@H](O)c3ccc(c(Cl)c3)Oc3cc2cc(c3O[C@@H]2O[C@H](CO)[C@@H](O)[C@H](O)[C@H]2O[C@H]2C[C@](C)(N)[C@H](O)[C@H](C)O2)Oc2ccc(cc2Cl)[C@H]1O [VANCOMYCIN]
- fCmin (Staphylococcus aureus [1]): 22 mg/L
- fAUC/MIC [2]: 269
- fAUC/MIC [3]: 105
- CFU/ml (Staphylococcus aureus [4]): 3
- fAUC/MIC [5]: 552
- fAUC/MIC [6]: 992
- fAUC/MIC [7]: >=180
- fAUC/MIC [8]: 1084
- CFU/ml (Staphylococcus aureus [9]): 2
- fCmin (Staphylococcus aureus [10]): 16 mg/L
- fCmin (Staphylococcus aureus [11]): 3 mg/L
- fAUC/MIC [12]: 644
- fCmin (Staphylococcus aureus [13]): 12 mg/L
- Activity (Staphylococcus aureus [14]): Active
- CFU/ml (Staphylococcus aureus [15]): 3
- fAUC/MIC [16]: 138
- fCmin (Staphylococcus aureus [17]): 3 mg/L
- CFU/ml (Staphylococcus aureus [18]): 0.5
- fCmin (Staphylococcus aureus [19]): 4 mg/L
- fCmin (Staphylococcus aureus [20]): 11 mg/L
- fCmin (Staphylococcus aureus [21]): 22 mg/L
- fAUC/MIC [22]: 271
- CFU/ml (Staphylococcus aureus [23]): 2
- fCmin (Staphylococcus aureus [24]): 10 mg/L
- CFU/ml (Staphylococcus aureus [25]): 3
- fAUC/MIC [26]: 317
- fCmin (Staphylococcus aureus [27]): 7 mg/L
- fCmin (Staphylococcus aureus [28]): 26 mg/L
- CFU/ml (Staphylococcus aureus [29]): 0.5
- fAUC/MIC [30]: 168
- fAUC/MIC [31]: 799
- fCmin (Staphylococcus aureus [32]): 3 mg/L
- CFU/ml (Staphylococcus aureus [33]): 2
- fAUC/MIC [34]: 2576
- fCmin (Staphylococcus aureus [35]): 12 mg/L
- fCmin (Staphylococcus aureus [36]): 12 mg/L
- fAUC/MIC [37]: 105
- fCmin (Staphylococcus aureus [38]): 7 mg/L
- fCmin (Staphylococcus aureus [39]): 3 mg/L
- fAUC/MIC [40]: 374
- fCmin (Staphylococcus aureus [41]): 7 mg/L
